Data from EP3495372B1 (priority 2017, dated 2019).
Marks after values point to notes of the source that are not given here.

Experiments:
[1] = system: platelet aggregation induced by ADP; test: Optical aggregometry in platelet-rich plasma, aggregation induced by ADP; format: cell-based, human; settings: ADP (20 µM)
Method: (§1) Blood Collection and Preparation of Platelet-Rich Plasma: blood was collected from healthy and non-smoking volunteers (all volunteers have signed informed consent) into a polypropylene tube containing 0.105 M buffered sodium citrate. None of the donors had received any medication known to affect platelet function for at least 10 days before blood collection. Platelet-rich plasma (PRP) was collected by the centrifugation of whole blood at 150 g for 15 min at room temperature. Subsequently, platelet-poor plasma (PPP) was collected by the centrifugation at 2000 g for 20 min at room temperature. The platelet count was adjusted to 2x10^8 cells /ml with PPP.
(§2) Incubation of PRP with BLA and LA: PRP was incubated with BLA and LA (25, 50, and 100 µM) for 15 minutes at 37 °C. PRP without any compound was used as a control.
(§3) Optical Aggregometry in Platelet-Rich Plasma: the measurement of platelet aggregation in PRP was performed using four-channel aggregometer (APACT 4004; LABiTec, Ahrensburg, Germany). After the incubation of PRP with three different compounds, platelet aggregation was stimulated by ADP (20 µM) and Collagen (10 µg/mL) and percentage of aggregation was monitored for 10 minutes. The percentage of aggregation, slope and shape change parameters were monitored for 10 minutes. Assay was started 1 hour after blood was collected and finished within 3 hours (Hao HZ, He AD, Wang DC, Yin Z, Zhou YJ, Liu G, Liang ML, Da XW, Yao GQ, Xie W, Xiang JZ, Ming ZY. Antiplatelet activity of loureirin A by attenuating Akt phosphorylation: In vitro studies. Eur. J. Pharmacol. 2015; 746:63-9).

[2] = system: cultured human blood cells; test: Nucleic acid oxidation, 8-hydroxy-2'-deoxyguanosine assay; format: cell-based
Text: All volunteers have signed informed consent.
Nucleic acid oxidation: 8-hydroxy-2'-deoxyguanosine assay kits (Cayman Chemical®) was used for determining 8- OH-dG levels in the cultures. It is a competitive assay that can be used for the quantification of 8-OHdG in homogenates and recognizes both free 8-OHdG and DNA-incorporated 8-OH-dG. This assay depends on the competition between 8-OH-dG and 8-OH-dGacetylcholinesterase (AChE) conjugate for a limited amount of 8-OH-dG monoclonal antibody (Abdel-Wahab BA, Metwally ME. Ginkgo biloba enhances the anticonvulsant and neuroprotective effects of sodium valproate against kainic acid-induced seizures in mice. J Pharmacol Toxicol. 2011; 6:679-690). All procedures were carried out in accordance with the provider's manual.
The levels of 8-OH-dG, a sensitive marker of oxidative DNA damage, were quantified about mitomycin (MMC) treatment. […] On the contrary, 8-OH-dG levels were not increased in the blood cells that were treated with BLA, MEM, and LA concentrations.

[3] = system: differentiated SH-SY5Y cells; test: TAC and TOS analysis in cellular model of Alzheimer's disease; format: cell-based, human; settings: co-treatment with Aβ1-42
Method: TAC and TOS analysis: the automated TAC and TOS assays were carried out by commercially available kits (Rel Assay^(R) Diagnostics, Gaziantep, Turkey) on samples from the cultures.
Control cells (n = 6) were cultured under normal conditions. 1% Triton X, ascorbic acid (10 µM) and hydrogen peroxide (H2O2, 25 µM) were used as positive controls for cell viability, TAC and TOS analysis, respectively.
Figure 5 and 6 show the effects of BLA and MEM treatments on TAC and TOS levels in cellular model of Alzheimer's disease, respectively.

[4] = system: differentiated SH-SY5Y cells; test: Apoptosis detection by Hoechst 33258 staining; format: cell-based, human; settings: 25 and 50 µM co-treatment, 20 µM Aβ1-42, 24 h
Method: Apoptosis detection by Hoechst 33258 staining: Hoechst 33258 staining was used to detect apoptotic nuclei. […] Then, cells fixed with 4% paraformaldehyde in phosphate buffered saline at 4 °C for 30 min. After washing cells with PBS, the nuclear DNAs were incubated with […] Hoechst 33258 fluorescent dye for 5 min at room temperature. Cells were observed and photographed under a fluorescence microscopy (Leica® DM IL LED).

human neuron-like cells = test: Apoptosis-Necrosis assay (Annexin V-FITC/PI flow cytometry); format: cell-based; settings: concentration not given
Method: Apoptosis-Necrosis assay: the frequencies of viable, apoptotic and necrotic cells were detected with the Annexin V-FITC apoptosis detection Kit I (BD Pharmingen, USA). Briefly, 5 x 10^4 cells were collected by centrifugation and cells resuspended in 500 µL of 1X binding buffer. Then, 5 µL of Annexin V-FITC and 5 µl of propidium iodide (PI 50 µg/ml) were added to the cultures and incubated 5 min in the dark. After that, cells fixed with 4% paraformaldehyde in phosphate buffered saline at 4 °C for 30 min. Cells from each well were stained according to the manufacturer's instructions and analyzed using a flow cytometer (CyFlow Cube 6, Partec, Germany). A computer system was used for data acquisition and analysis. Four different populations of cells are detected with the Annexin V-FITC kit: viable cells that are annexin negative and PI negative and express no fluorescence, early apoptotic cells that are annexin positive and PI negative and that express green fluorescence, late apoptotic/necrotic cells that are annexin positive and PI positive and that express green and orange fluorescence, necrotic cells that are annexin negative and PI positive and that express orange fluorescence (Majstorovic I, Vucevic D, Pavlovic B, Vasilijic S, Colic M. An anti-DEC-205 monoclonal antibody stimulates binding of thymocytes to rat thymic dendritic cells and promotes apoptosis of thymocytes. Cent Eur J Immunol. 2014; 39:411-418) .
BLA was considered as more able to protect the human neuron-like cells from Aβ1-42-induced necrosis and late apoptosis than LA or MEM.

[5] = system: platelet aggregation induced by collagen; test: Optical aggregometry in platelet-rich plasma, aggregation induced by collagen; format: cell-based, human; settings: Collagen (10 µg/mL)
Method: as §1, §2, §3

In the case of CC1(C)C2CC3OB(CNC(=O)CCCC[C@H]4CCSS4)O[C@]3(C)C1C2 (stereo partly drawn) [BLA, 5-((S)-1,2-dithiolan-3-yl)-N-(((3aR)-3a,5,5-trimethylhexahydro-4,6-methanobenzo[d][1,3,2]dioxaborol-2-yl)methyl)pentanamide], the “Max. Aggregation (%)” value ([1]; 25 µM) is reported as 49,8* %, the “Shape change (%)” value ([1]; 25 µM) is reported as 12.1* % and the “Slope (%)” value ([1]; 25 µM) is reported as 66.7* %. The “Max. Aggregation (%)” value ([1]; 50 µM) was 41.3* %, the “Shape change (%)” value ([1]; 50 µM) was 10.3* % and the “Slope (%)” value ([1]; 50 µM) was 51.5* %. The “Max. Aggregation (%)” value ([1]; 100 µM) was 32.2* %, the “Shape change (%)” value ([1]; 100 µM) was 6.8* % and the “Slope (%)” value ([1]; 100 µM) was 47.3* %. The 8-OH-dG levels [2] was “not increased”, the “Aβ1-42-induced decreases of TAC and increases of TOS levels” value [3] was “modulated” and the “nuclear integrity and apoptosis by Aβ1-42 (Hoechst 33258)” value [4] was “protected nuclear integrity and inhibited apoptosis”. The “decreased the necrotic cell percentage by Aβ1-42” value (human neuron-like cells) was 68.38%, the “Max. Aggregation (%)” value ([5]; 25 µM) was 45.7* % and the “Shape change (%)” value ([5]; 25 µM) was 24.7* %. For the same molecule, the “Slope (%)” value ([5]; 25 µM) was 41.4* %, the “Max. Aggregation (%)” value ([5]; 50 µM) was 31.8* % and the “Shape change (%)” value ([5]; 50 µM) was 10.2* %. For the same molecule, the “Slope (%)” value ([5]; 50 µM) was 30.8* %, the “Max. Aggregation (%)” value ([5]; 100 µM) was 7.9* % and the “Shape change (%)” value ([5]; 100 µM) was 5.6* %. For the same molecule, the “Slope (%)” value ([5]; 100 µM) was 25.5* %.

With O=C(O)CCCCC1CCSS1 (centres unmarked) [LA, 1,2-dithiolane-3-pentanoic acid] the “Max. Aggregation (%)” value ([1]; 25 µM) was 55.8* %, the “Shape change (%)” value ([1]; 25 µM) was 17.4* % and the “Slope (%)” value ([1]; 25 µM) was 69.8* %. For the same molecule, the “Max. Aggregation (%)” value ([1]; 50 µM) was 47.8* %, the “Shape change (%)” value ([1]; 50 µM) was 14.5* % and the “Slope (%)” value ([1]; 50 µM) was 61.4* %. For the same molecule, the “Max. Aggregation (%)” value ([1]; 100 µM) was 44.6* %, the “Shape change (%)” value ([1]; 100 µM) was 13.8* % and the “Slope (%)” value ([1]; 100 µM) was 58.0* %. For the same molecule, the 8-OH-dG levels [2] was “not increased”, the “Aβ1-42-induced decreases of TAC and increases of TOS levels” value [3] was “modulated” and the “nuclear integrity and apoptosis by Aβ1-42 (Hoechst 33258)” value [4] was “protected nuclear integrity and inhibited apoptosis”. For the same molecule, the “decreased the necrotic cell percentage by Aβ1-42” value (human neuron-like cells) was 61.67%, the “Max. Aggregation (%)” value ([5]; 25 µM) was 47.9* % and the “Shape change (%)” value ([5]; 25 µM) was 27.9* %. For the same molecule, the “Slope (%)” value ([5]; 25 µM) was 43.6* %, the “Max. Aggregation (%)” value ([5]; 50 µM) was 41.6* % and the “Shape change (%)” value ([5]; 50 µM) was 23.4* %. For the same molecule, the “Slope (%)” value ([5]; 50 µM) was 37.2* %, the “Max. Aggregation (%)” value ([5]; 100 µM) was 35.8* % and the “Shape change (%)” value ([5]; 100 µM) was 20.8* %. For the same molecule, the “Slope (%)” value ([5]; 100 µM) was 31,4* %.
